Experimental findings from ChEMBL document CHEMBL1150368, “Detection of triplet repeat sequences in the double-stranded DNA using pyrene-functionalized pyrrole-imidazole polyamides with rigid linkers” (Bioorg Med Chem, 2008) are described below.

The assay can be described thus: Binding affinity to biotinylated hairpin DNA by surface plasmon resonance assay.

With `CC(=O)Nc1cn(C)c(C(=O)Nc2cc(C(=O)NCCC(=O)Nc3cn(C)c(C(=O)Nc4cc(C(=O)NCCCC(=O)Nc5cn(C)c(C(=O)Nc6cc(C(=O)NCCC(=O)Nc7cn(C)c(C(=O)Nc8cc(C(=O)NCCC(=O)NCCCN(C)C)n(C)c8)n7)n(CC#Cc7ccc8ccc9cccc%10ccc7c8c9%10)c6)n5)n(CC#Cc5ccc6ccc7cccc8ccc5c6c78)c4)n3)n(C)c2)n1`, the affinity, expressed as Kd, was 837 nM.
